24 molecules from patent US20240182495A1, “ANTIBACTERIAL COMPOUNDS” (JANSSEN SCIENCES IRELAND UNLIMITED COMPANY, priority 2021, published 2024) can be followed below.

SMILES strings stand for the structures.

The test system of the first experiment is Mycobacterium tuberculosis strain (EH4.0, GFP-expressing; Test 2: H37Rv). Kind of experiment: MIC determination against M. tuberculosis, Test 1 (and/or Test 2). Format: cell-based. Conditions: 7 days incubation, fluorescence.
With `CCc1nc2ncc(C)cn2c1C(=O)NCc1coc(-c2nc3n(n2)CCN(S(=O)(=O)C(F)(F)F)C3)n1` [Compound 72], the pIC50 is on record as <6.3.
As for `CCc1nc2nc(NC)c(Cl)cn2c1C(=O)NCc1ccc(-c2nc3n(n2)CCN(S(=O)(=O)C(F)(F)F)C3)c(F)c1` [Compound 13], the pIC50 is <6.301.

Staying with this experiment, now noted: Mycobacterium tuberculosis, H37RV, 168 h, 7 days incubation, fluorescence.
Turning to `CCc1nc2cc(Cl)c(C)cn2c1C(=O)NCc1ccc(-c2nc3n(n2)CCN(S(=O)(=O)C(F)(F)F)C3)cc1` [Compound 25], the IC50 is 182 nM. That is a sub-micromolar value.
The same measure, in the same setting: the same measure for `CCc1nc2ccc(C)cn2c1C(=O)NCc1ccc(-c2nc3n(n2)CCN(CCOC)C3)cc1` [Compound 55]: 50.1 nM; for `O=C(NCc1ccc(-c2nc3n(n2)CCN(S(=O)(=O)C(F)(F)F)C3)c(F)c1)c1c(C(F)F)nc2ccc(Cl)cn12` [Compound 5]: 229 nM; for `Cc1cnc2nc(C)c(C(=O)NCc3ccc(-c4nc5n(n4)CCN(S(=O)(=O)C(F)(F)F)C5)cc3)n2c1` [Compound 29]: 21.9 nM.
Still for that read-out and setting: the same measure for `CCc1nc2nc3c(cn2c1C(=O)NCc1ccc(-c2nc4n(n2)CCN(S(=O)(=O)C(F)(F)F)C4)c(F)c1)CCOC3` [Compound 18]: 151 nM; for `CCc1nc2n(c1C(=O)NCc1ccc(-c3nc4n(n3)CCN(S(=O)(=O)C(F)(F)F)C4)cc1)CCN(C)C2` [Compound 65]: 331 nM.
The same measure, in the same setting: the same measure for `CCc1nc2ccc(C3CC3)cn2c1C(=O)NCc1ccc(-c2nc3n(n2)CCN(S(=O)(=O)C(F)(F)F)C3)cc1` [Compound 27]: 138 nM; for `CCc1nc2cc(C)c(Cl)cn2c1C(=O)NCc1cnc(-c2nc3n(n2)CCN(S(=O)(=O)C(F)(F)F)C3)c(F)c1` [Compound 20]: 501 nM; for `CCc1nc2ncc(C(C)C)cn2c1C(=O)NCc1ccc(-c2nc3n(n2)CCN(S(=O)(=O)C(F)(F)F)C3)cc1` [Compound 26]: 245 nM.
Molecule `CCc1nc2sc(Cl)cn2c1C(=O)NCc1ccc(-c2nc3n(n2)CCN(S(=O)(=O)C(F)(F)F)C3)cc1` [Compound 39] showed an IC50 of 123 nM.
In turn, `CCc1nc2n(c1C(=O)NCc1ccc(-c3nc4n(n3)CCN(S(=O)(=O)C(F)(F)F)C4)cc1)CCCC2` [Compound 31] had an IC50 of 24 nM.
In turn, `CCc1nc2c(Cl)c(OC)ccn2c1C(=O)NCc1ccc(-c2nc3n(n2)CCN(S(=O)(=O)C(F)(F)F)C3)c(F)c1` [Compound 11] gave an IC50 of 447 nM. Compared with the last molecule, the IC50 is about 19-fold higher.
The same measure, in the same setting: the same measure for `CCc1nc2nc3c(cn2c1C(=O)NCc1ccc(-c2nc4n(n2)CCN(S(=O)(=O)C(F)(F)F)C4)cc1)CCC3` [Compound 45]: 15.1 nM; for `CCc1nc2cc(C)c(C)cn2c1C(=O)NCc1ccc(-c2nc3n(n2)CCN(S(=O)(=O)C(F)(F)F)C3)cc1` [Compound 23]: 32.4 nM; for `CCc1nc2ncc(C)cn2c1C(=O)NCc1ccc(-c2nc3n(n2)CCN(CCC#N)C3)cc1` [Compound 61]: 389 nM.
On the same count and under the same terms, the same measure for `CCc1nc2ncc(C)cn2c1C(=O)NCc1ccc(-c2nc3n(n2)CCN(C(C)=O)C3)cc1` [Compound 40]: 501 nM; for `CCc1nc2ccc(C)cn2c1C(=O)NCc1ccc(-c2nc3n(n2)CCN(CCC#N)C3)cc1` [Compound 62]: 174 nM; for `CCc1nc2ccc(F)cn2c1C(=O)NCc1ccc(-c2nc3n(n2)CCN(S(=O)(=O)C(F)(F)F)C3)cc1` [Compound 22]: 44.7 nM.
The same measure, in the same setting: the same measure for `CCc1nc2ccc(C)cn2c1C(=O)NCc1ccc(-c2nc3n(n2)CCN(C(=O)C(F)(F)F)C3)cc1` [Compound 53]: 120 nM; for `CCc1nc2ncc(C)cn2c1C(=O)NCc1ccc(-c2nc3n(n2)CCN(CCOC)C3)cc1` [Compound 54]: 132 nM; for `CCc1nc2cc(N)c(Cl)cn2c1C(=O)NCc1cnc(-c2nc3n(n2)CCN(S(=O)(=O)C(F)(F)F)C3)c(F)c1` [Compound 78]: > 501 nM.
`CCc1nc2ncc(C)cn2c1C(=O)NCc1ccc(C2CCN(c3nc4n(n3)CCN(S(=O)(=O)C(F)(F)F)C4)C2)cc1` (stereo not drawn) [Compound 69] gave an IC50 of 15.1 nM.
